Read-outs that look alike come from different tables or passages of the source.
Columns and labels:
dyskinesia [1] = settings: rhesus monkey models; cited from earlier work
[2] = tested on: L-DOPA induced dyskinesia; test: L-DOPA induced dyskinesia model in monkey (MPTP-treated, L-DOPA methylester and benserazide); format: in vivo, crab-eating macaques; settings: substance administered 20 minutes before L-DOPA methylester and benserazide, scored every 30 minutes for 5 hours
Method: To male crab-eating macaques, MPTP (1-methyl-4-phenyl-1,2,3,6-tetrahydropyridine) was frequently administered intravenously or subcutaneously in a dose of 0.2 to 1 mg/kg to cause Parkinson's disease.
In order to check the effect of the substance to be tested, i.e., 3-(2-cyanophenyl)-5-(2-pyridyl)-1-phenyl-1,2-dihydropyridine-2-on, the administration dose of L-DOPA methylester was adjusted to control the severity of the dyskinesia to a certain state.
The behavior before the administration of drugs (L-DOPA methylester and benserazide) was recorded, and then the substance to be tested was administered. 20 minutes after that, L-DOPA methylester and benserazide were administered.
The severity of the symptoms of Parkinson's disease was evaluated based on the items shown in Table 1 in a blinded manner, and shown as the total score.
The dyskinesia induced by the side effects of the administration of L-DOPA methylester and benserazide was evaluated based on the items shown in Table 2 in a blinded manner. […]
The symptoms were evaluated in a time-series manner before the administration of the drugs, and every 30 minutes after the administration of the drugs, for a total of 5 hours. The effect of the substance to be tested was determined as follows. […]

dyskinesia [3] = settings: cited from earlier work
dyskinesia [4] = settings: cited from earlier work; remark: listed apart in the source

CCN(CC)Cc1cccc(C=Cc2nc3ccc(F)cc3c(=O)n2-c2ccccc2Cl)n1 [3-(2-chlorophenyl)-2-[2-(6-diethylaminomethylpyridine-2-yl)-vinyl]-6-fluoro-3H-quinazoline-4-on]
effect on dyskinesia (dyskinesia [1]): has an effect on dyskinesia

N#Cc1ccccc1-c1cc(-c2ccccn2)cn(-c2ccccc2)c1=O [3-(2-cyanophenyl)-5-(2-pyridyl)-1-phenyl-1,2-dihydropyridine-2-on]
effect on dyskinesia (dyskinesia score, severity of dyskinesia) ([2]; FIG. 1, significant vs solvent P<0.01): provided an dyskinesia suppressing action | effect on the symptoms of Parkinson's disease (total score) ([2]; FIG. 2, significant vs solvent P<0.05, P<0.01): clearly improving the symptoms of Parkinson's disease

CC(=O)N1N=C(c2ccc(N)cc2)c2cc3c(cc2C[C@H]1C)OCO3 [LY-300164, Talampanel]
effect on dyskinesia (dyskinesia [3]; MPTP-treated monkeys with L-DOPA induced dyskinesia): the dyskinesia were improved | effect on the symptoms of Parkinson's disease (symptom scores) (dyskinesia [3]; experiment with the monkeys): not recognized as having an effect of clearly improving the symptoms of Parkinson's disease

CC1(C)O[C@@H]2[C@@H](CO[C@@]3(COS(N)(=O)=O)OC(C)(C)O[C@@H]23)O1 [Topiramate]
effect on the symptoms of Parkinson's disease (dyskinesia [4]; in vivo): shows a tendency of deteriorating the symptoms of Parkinson's disease, although not significantly | effect on dyskinesia (dyskinesia [4]; marmoset models): has an action of suppressing dyskinesia

From patent US20090030017A1, “THERAPEUTIC AGENT FOR DYSKINESIA” (Eisai R & D Management Co., Ltd, priority 2005, published 2009)
